Assay [1] relates to memory disruption induced by hypoxia, male CD rats. Briefly: Rat Passive Avoidance (PA) Hypoxia Induced Amnesia. The format is in vivo, rat (male CD). The following applies: Table II; SC; median retention latency vs vehicle.
Source text: Rat Passive Avoidance (PA) Hypoxia Induced Amnesia:
Unfasted male CD rats, weighing between 165-210 grams, were trained in a PA apparatus using the following procedure: rats were placed in the clear side of the two compartment chamber and allowed 90 seconds to enter the dark compartment. Ten seconds after entering the dark chamber, a 3 second footshock (1.0 mA) was applied to the grid floor followed by an additional 10 second delay, and another 3 second footshock was applied. Retentions were tested 4 hours later. The rats were allowed 300 seconds to enter the dark compartment; time was taken. Memory disruption was induced by exposing the rats to a gas mixture containing 6.5% oxygen supplemented with nitrogen for 30 minutes before passive avoidance training. Doses of the test compound were administered (0.1 ml/100 g, SC.) relative to time of PA training.
In assay [2] the test system is ACh level in the rat hippocampus. Briefly: Microdialysis, ACh levels in the rat hippocampus in vivo. More on the design: species or system rat (male Wistar). The following applies: Table IV. The gist of the method: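 Male Wistar rats with dorsal hippocampal probes were perfused with aCSF containing 100 μM physostigmine, and 20-min dialysates were assayed by HPLC-EC. After 3 baseline samples, drug or vehicle was given and sampling continued 3 h. ACh peak heights are expressed as percent change over mean baseline.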

The test system of assay [3] is stimulus-induced acetylcholine release, slices from the parietal cortex. Briefly: Neurotransmitter (ACh) release assay, rat cortex slices, K+ stimulated. The format is cell-based, rat (male Wistar). The following applies: for activation at 10 µM: Table II, % increase of drug-induced ACh release; for EC50: Table III. As to the method: The neurotransmitter release activities of the compounds of this invention were determined using standard biochemical assay procedures for example, the neurotransmitter release assay as described below.
Neurotransmitter release assay.
The neurotransmitter (Ach) release activities of the compounds of this invention were determined by the assay as described by Nickolson, et al., Drug Development Research, (1990) 19: 285-300, a modification of the procedure described by Mulder, et al., Brain Res., (1974) 70: 372.
Male Wistar rats (Charies River) weighing 175-200 grams were used. Rats were decapitated and brains were dissected immediately. Slices (0.3 mm thick) from the parietal cortex were prepared (approximately 100 mg wet weight) and were incubated in 10 ml KrebsRinger medium (KR) containing NaCl (116 mM), KCl (3 mM), CaCl2 (1.3 mM), MgCl2 (1.2 mM), KH2 PO4 (1.2 mM), Na2 SO4 (1.2 mM), NaHCO3 (25.0 mM), and glucose (11.0 mM), to which was added 10 uCi ^3 H-choline (specific activity approximately 35 Ci/mM; NEN) and […] unlabeled choline to give a final concentration of one micromole. The brain preparations were incubated for 30 min. at 37° C. under a steady flow of 95% O2 /5% CO2. Under these conditions, part of the radioactive choline taken up by the preparation was converted into radioactive acetylcholine (ACh) by the cholinergic nerve endings stored in synaptic vesicles, and released upon depolarization by high potassium ion (K+) containing media.
After labelling of the ACh stores, the slices were washed three times with non-radioactive KR medium and transferred to a superfusion apparatus to measure the drug effects on ACh release. The superfusion apparatus consisted of 10 thermostated glass columns of 5 mm diameter that were provided with GF/F glass fiber filters to support the slices (approximately 10 mg tissue/column). Superfusion was carried out in KR-medium (0.3 ml/min.) containing […] hemicholine-3 (HC-3). The HC-3 prevents the reuptake of choline formed during the superfusion from phospholipids and released ACh, which would be converted into unlabeled ACh and released in preference to the preformed labeled ACh. The medium was delivered by a 25-channel peristaltic pump (Ismatec by Brinkman) and warmed to 37° C. in a thermostated stainless steel coil before entering the superfusion column. Each column was provided with a 4-way slider valve (Beckmann instruments) which allowed rapid change of low to high K+/KR-medium, and with two 10-channel 3-way valves that were used to change from drug-free to drug-containing low and high K+/KR-medium. After 15 min. of washout of non-specifically bound radioactivity, collection of 4 min. fractions was initiated. After three 4 min. collections, the original medium was changed to a KR-medium in which the KCl concentration had been increased to 25 mM (high K+ medium) (S1). Depolarization-induced stimulation of release by high K+/KR-medium lasted for 4 min. Drug free low and high K+/KR-media were then substituted by drug- and vehicle-containing low- and high-K+/KR-medium, and superfusion was continued for three 4 min. collections with low K+/KR-medium, one 4 min. collection with high K+/KR-medium (s2), and two 4 min. collections with low K+/KR-medium.
Drug was added to the media by 100-fold dilutions of appropriate concentrations of the drug (in 0.9% saline) with either low- or high-K+/KR-medium. For comparative purposes, linopirdine was also run.
All superfusion fractions were collected in liquid scintillation counting vials. After superfusion, the slices were removed from the superfusion columns and extracted with 1.0 ml of 0.1N HCl. Liquiscint (NEN) counting fluid (12 ml) was added to superfusion fractions and extracts, and the samples were counted in a Packard Tricarb Liquid Scintillation Counter. No corrections were made for quenching. […]

[4] abbreviates: 5 mg/kg, vehicle water, NSP = no significant points.
Where [5] appears, read: 5 mg/kg, vehicle methocel, NSP = no significant points.

For `O=C1N(c2ccccc2)c2ccccc2C1(Cc1ccncc1)Cc1ccncc1` [linopirdine, 3,3-bis-(4-pyridinylmethyl)-1-phenylindolin-2-one, reference compound], the “PA Hypoxia” value in assay [1] is given as “Active”. Further, the “AUC, Area % under the curve” value in assay [2] (5 mg/kg, vehicle water) worked out at 83 ± 73%; in assay [2] (10 mg/kg, vehicle methocel), 212 ± 61%; in assay [2] (10 mg/kg, vehicle water), 191 ± 68%; in assay [2] (20 mg/kg, vehicle methocel), 600 ± 71%; in assay [2] (20 mg/kg, vehicle water) it was 315 ± 108%. The “Peak, maximal % increase of ACh release over baseline” value (from here on “Peak, maximal % increase”) in assay [2] (5 mg/kg, vehicle water) is given as 50 ± 16%; in assay [2] (10 mg/kg, vehicle methocel) it was 62 ± 15%; in assay [2] (10 mg/kg, vehicle water), 56 ± 7%; in assay [2] (20 mg/kg, vehicle methocel), 117 ± 36%; in assay [2] (20 mg/kg, vehicle water) it was 68 ± 26%. For the same compound, the “time of Peak after administration” value in assay [2] (5 mg/kg, vehicle water) was 40 min; in assay [2] (10 mg/kg, vehicle methocel), 40 min; in assay [2] (10 mg/kg, vehicle water) it was 40 min; in assay [2] (20 mg/kg, vehicle methocel), 40 min; in assay [2] (20 mg/kg, vehicle water), 100 min. Besides, the “Duration, minutes of release above statistical significance” value in assay [2] (setting [4]) was 20 min; in assay [2] (10 mg/kg, vehicle methocel) it was 100 min; in assay [2] (10 mg/kg, vehicle water), 60 min; in assay [2] (20 mg/kg, vehicle methocel), 140 min; in assay [2] (20 mg/kg, vehicle water), 100 min. Moreover, the activation at 10 µM in assay [3] is 408%.
As for `c1ccc(Cn2ncc3c2-c2ccccc2C3(Cc2ccncc2)Cc2ccncc2)cc1` [Example 14, 1,4-Dihydro-1-(phenylmethyl)-4,4-bis(4-pyridinylmethyl)indeno[1,2-C]pyrazol], the “PA Hypoxia” value in assay [1] is recorded as “Active”. This compound also returned an activation at 10 µM in assay [3] of 533%.
Take `Fc1cc(CC2(Cc3ccnc(F)c3)c3cccnc3-c3sccc32)ccn1` [Example 69, 4,4-Bis((2-fluoro-4-pyridinyl)methyl)-4H-thieno[3',2':4,5]cyclopenta[1,2-b]pyridine]: in assay [2] (5 mg/kg, vehicle water), the “AUC, Area % under the curve” value is reported as 285 ± 40%; the “Peak, maximal % increase” value is 44 ± 14%; the “time of Peak after administration” value came to 20 min. In assay [2] (setting [4]), the “Duration, minutes of release above statistical significance” value is 40 min. In addition, a half-maximal response in assay [3] (EC50) required 650 nM.
As for `Fc1cc(CC2(Cc3ccncc3)c3ccccc3Oc3ccccc32)ccn1` [Example 65, 9-((2-Fluoro-4-pyridinyl)methyl)-9-(4-pyridinylmethyl)-9H-xanthene], in assay [2] (5 mg/kg, vehicle methocel), the “AUC, Area % under the curve” value is given as 147 ± 69%; the “Peak, maximal % increase” value was 40 ± 11%; the “time of Peak after administration” value amounted to 20 min. The “Duration, minutes of release above statistical significance” value in assay [2] (setting [5]) was 60 min. For the same compound, the EC50 (usually the concentration giving half of the maximal effect) in assay [3] stood at 820 nM.
As to `Fc1cc(CC2(Cc3ccncc3)c3ccccc3-c3sccc32)ccn1` (stereo not drawn) [Example 7, 2-Fluoro-4-[4-(4-pyridinylmethyl)-4H-indeno[1,2-B]thiophen-4-ylmethyl]-pyridine], in assay [2] (5 mg/kg, vehicle water), the “AUC, Area % under the curve” value is 235 ± 87%; the “Peak, maximal % increase” value is given as 53 ± 19%; the “time of Peak after administration” value was 180 min. Besides, in assay [2] (setting [4]), the “Duration, minutes of release above statistical significance” value is reported as “NSP”. The compound further gave an activation at 10 µM in assay [3] of 439%.
In the case of `COc1ccc2c(c1)C(Cc1ccnc(F)c1)(Cc1ccnc(F)c1)c1cccnc1O2` [Example 72, 9,9-Bis((2-fluoro-4-pyridinyl)methyl)-7-methoxy-4-azaxanthene], in assay [2] (5 mg/kg, vehicle methocel), the “AUC, Area % under the curve” value is 138 ± 109%; the “Peak, maximal % increase” value is 34 ± 22%; the “time of Peak after administration” value turned out to be 60 min. The “Duration, minutes of release above statistical significance” value in assay [2] (setting [5]) was “NSP”. This compound came in with an EC50 in assay [3] of 850 nM.
As to `Fc1cc(CC2(Cc3ccnc(F)c3)c3cccnc3-c3ncccc32)ccn1` [Example 97, 5,5-Bis((2-fluoro-4-pyridinyl)methyl)-5H-cyclopenta[2,1-b:3,4-b']dipyridine], in assay [2] (10 mg/kg, vehicle methocel), the “AUC, Area % under the curve” value is 649 ± 188%; the “Duration, minutes of release above statistical significance” value came out at 120 min; the “Peak, maximal % increase” value turned out to be 102 ± 29%; the “time of Peak after administration” value was 100 min. The concentration for a half-maximal effect (EC50) in assay [3] was 2620 nM.
Consider `COc1ccc2c(c1)C(Cc1ccnc(F)c1)(Cc1ccnc(F)c1)c1ccccc1-2` [Example 71, 9,9-Bis((2-fluoro-4-pyridinyl)methyl)-2-methoxyfluorene], for which, in assay [2] (5 mg/kg, vehicle methocel), the “AUC, Area % under the curve” value is 126 ± 74%; the “Peak, maximal % increase” value was determined as 34 ± 16%; the “time of Peak after administration” value stood at 60 min. The “Duration, minutes of release above statistical significance” value in assay [2] (setting [5]) is reported as “NSP”. The same compound had an EC50 in assay [3] of 1240 nM.
